The values that follow come from PubChem BioAssay AID1259407 (Chemical Carcinogenesis Research Information System (CCRIS), 2018).

Activity calls are given as the source filed them. How the calls were made is not given here.

In the series the test system is CCRIS mutagenicity, Ames/micronucleus/aberration tests. The series is described as follows: CCRIS mutagenicity studies.
The mark [1] stands for this setting: Test System: AMES SALMONELLA TYPHIMURIUM, Strain/Indicator: TA98, Metabolic Activation: NONE, Method: PREINCUBATION
Setting [2] is: Test System: E.COLI, Strain/Indicator: WP2UVRA/PKM101, Metabolic Activation: NONE, Method: PREINCUBATION
The mark [3] stands for this setting: Test System: AMES SALMONELLA TYPHIMURIUM, Strain/Indicator: TA100, Metabolic Activation: NONE, Method: STANDARD PLATE.

On to `N[C@@H](CC(=O)O)C(=O)O`, for which the mutagenic call is, setting by setting: (End Point: In vivo micronucleus, Test System: Bone marrow erythrocytes, Species: Mouse, Strain/Sex: Crl:CD1 (ICR)/Male and female, Route: Oral) “inactive; negative”; (Test System: AMES SALMONELLA TYPHIMURIUM, Strain/Indicator: TA97, Metabolic Activation: NONE, Method: PREINCUBATION) “inactive; negative”; (Test System: AMES SALMONELLA TYPHIMURIUM, Strain/Indicator: TA97, Metabolic Activation: RAT, LIVER, S-9, AROCLOR 1254, Method: PREINCUBATION) “inactive; negative”; under setting [1], “inactive; negative”; (Test System: AMES SALMONELLA TYPHIMURIUM, Strain/Indicator: TA98, Metabolic Activation: RAT LIVER S-9, PHENOBARBITAL AND BETA-NAPHTHOFLAVONE, Method: PREINCUBATION) “inactive; negative”; (Test System: AMES SALMONELLA TYPHIMURIUM, Strain/Indicator: TA100, Metabolic Activation: NONE, Method: PREINCUBATION) “inactive; negative”. The mutagenic call by setting is: (Test System: AMES SALMONELLA TYPHIMURIUM, Strain/Indicator: TA100, Metabolic Activation: RAT LIVER S-9, PHENOBARBITAL AND BETA-NAPHTHOFLAVONE, Method: PREINCUBATION) “inactive; negative”; (Test System: AMES SALMONELLA TYPHIMURIUM, Strain/Indicator: TA102, Metabolic Activation: NONE, Method: PREINCUBATION) “inactive; negative”; (Test System: AMES SALMONELLA TYPHIMURIUM, Strain/Indicator: TA102, Metabolic Activation: RAT, LIVER, S-9, AROCLOR 1254, Method: PREINCUBATION) “inactive; negative”; (Test System: AMES SALMONELLA TYPHIMURIUM, Strain/Indicator: TA1535, Metabolic Activation: NONE, Method: PREINCUBATION) “inactive; negative”; (Test System: AMES SALMONELLA TYPHIMURIUM, Strain/Indicator: TA1535, Metabolic Activation: RAT LIVER S-9, PHENOBARBITAL AND BETA-NAPHTHOFLAVONE, Method: PREINCUBATION) “inactive; negative”; (Test System: AMES SALMONELLA TYPHIMURIUM, Strain/Indicator: TA1537, Metabolic Activation: NONE, Method: PREINCUBATION) “inactive; negative”. Moreover, the mutagenic call reads like this: (Test System: AMES SALMONELLA TYPHIMURIUM, Strain/Indicator: TA1537, Metabolic Activation: RAT LIVER S-9, PHENOBARBITAL AND BETA-NAPHTHOFLAVONE, Method: PREINCUBATION) “inactive; negative”; (Test System: Ames Salmonella typhimurium, Strain/Indicator: TA98, Species: None, Method: Standard plate) “inactive; negative”; (Test System: Ames Salmonella typhimurium, Strain/Indicator: TA98, Species: Rat, Liver, S-9, Aroclor 1254 (10%), Method: Standard plate) “inactive; negative”; (Test System: Ames Salmonella typhimurium, Strain/Indicator: TA100, Species: None, Method: Standard plate) “inactive; negative”; (Test System: Ames Salmonella typhimurium, Strain/Indicator: TA100, Species: Rat, Liver, S-9, Aroclor 1254 (10%), Method: Standard plate) “inactive; negative”; (Test System: Ames Salmonella typhimurium, Strain/Indicator: TA1535, Species: None, Method: Standard plate) “inactive; negative”. Also, the mutagenic call was “inactive; negative” (Test System: Ames Salmonella typhimurium, Strain/Indicator: TA1535, Species: Rat, Liver, S-9, Aroclor 1254 (10%), Method: Standard plate); “inactive; negative” (Test System: Ames Salmonella typhimurium, Strain/Indicator: TA1537, Species: None, Method: Standard plate); “inactive; negative” (Test System: Ames Salmonella typhimurium, Strain/Indicator: TA1537, Species: Rat, Liver, S-9, Aroclor 1254 (10%), Method: Standard plate); “inactive; negative” (Test System: E. coli, Strain/Indicator: WP2 uvrA, Metabolic Activation: None, Method: Standard plate); “inactive; negative” (Test System: E. coli, Strain/Indicator: WP2 uvrA, Metabolic Activation: Rat, Liver, S-9, Aroclor 1254 (10%), Method: Standard plate); “inactive; negative” under setting [2]. In addition, the mutagenic call (Test System: E.COLI, Strain/Indicator: WP2UVRA/PKM101, Metabolic Activation: RAT LIVER S-9, PHENOBARBITAL AND BETA-NAPHTHOFLAVONE, Method: PREINCUBATION) is “inactive; negative”.
On to `CCC(C)Br` (stereo unspecified), for which the mutagenic call (Test System: AMES SALMONELLA TYPHIMURIUM, Strain/Indicator: TA100, Metabolic Activation: NONE, Method: DESICCATOR) is “active; positive”; the mutagenic call (Test System: AMES SALMONELLA TYPHIMURIUM, Strain/Indicator: TA100, Metabolic Activation: RAT, LIVER, S-9, AROCLOR 1254, Method: DESICCATOR) is “active; positive”; the mutagenic call (Test System: AMES SALMONELLA TYPHIMURIUM, Strain/Indicator: TA1535, Metabolic Activation: NONE, Method: DESICCATOR) was “active; positive”; the mutagenic call (Test System: AMES SALMONELLA TYPHIMURIUM, Strain/Indicator: TA1535, Metabolic Activation: RAT, LIVER, S-9, AROCLOR 1254, Method: DESICCATOR) is “active; positive”.
Turning to `CCCCCOC(=O)C=Cc1ccc([N+](=O)[O-])o1`, under setting [1], the mutagenic call is “active; positive”.
`CCc1nc(N)nc(N)c1-c1ccc(Cl)cc1`: the mutagenic call was “active; positive” (End Point: IN VITRO CHROMOSOMAL ABERRATIONS, Test System: HUMAN LYMPHOCYTES, Metabolic Activation: NONE); “inactive; negative” (End Point: IN VITRO MICRONUCLEUS, Test System: HAMSTER V79 CELLS, Metabolic Activation: NONE); “active; positive (at highest dose only)” (End Point: In vivo chromosomal aberrations, Species: Mouse, Strain/Sex: Swiss/Male, Route: Intraperitoneal); “active; positive (chromatid breaks and acentric fragments)” (End Point: In vivo chromosomal aberrations, Test System: Bone marrow cells, Species: Mouse, Strain/Sex: Swiss/Male, Route: Intraperitoneal); “active; positive (at highest dose only)” (End Point: In vivo chromosomal aberrations, Test System: Spermatocytes, Species: Mouse, Strain/Sex: Swiss/Male, Route: Intraperitoneal); “inactive; negative” under setting [2]. For the same molecule, the mutagenic call (Test System: E.COLI, Strain/Indicator: WP2UVRA/PKM101, Metabolic Activation: RAT LIVER S-9, PHENOBARBITAL AND 5,6-BENZOFLAVONE, Method: PREINCUBATION) was “inactive; negative”.
Regarding `COC(=O)CCN(N=O)C(N)=O`, the mutagenic call by setting is: (Test System: E. COLI B, Strain/Indicator: H/R30R, Metabolic Activation: NONE) “active; positive”; (Test System: E. COLI B, Strain/Indicator: HS30R, Metabolic Activation: NONE) “active; positive”.
Regarding `COP(=S)(NC(C)C)Oc1ccccc1C(=O)OC(C)C` (stereo unspecified), the mutagenic call is “inactive; negative” (Test System: AMES SALMONELLA TYPHIMURIUM, Strain/Indicator: TA98, Metabolic Activation: NONE, Method: STANDARD PLATE); “inactive; negative” (Test System: AMES SALMONELLA TYPHIMURIUM, Strain/Indicator: TA98, Metabolic Activation: RAT, LIVER, S-9, PCB, Method: STANDARD PLATE); “inactive; negative” under setting [3]; “inactive; negative” (Test System: AMES SALMONELLA TYPHIMURIUM, Strain/Indicator: TA100, Metabolic Activation: RAT, LIVER, S-9, PCB, Method: STANDARD PLATE).
As to `OCC(O)C1CO1` (stereo unspecified), the mutagenic call is, setting by setting: (End Point: IN VIVO MICRONUCLEUS, Test System: SPERMATID, Species: RAT, Strain/Sex: SPRAGUE-DAWLEY/MALE, Route: IP INJECTION) “active; positive”; under setting [3], “active; positive”; (Test System: AMES SALMONELLA TYPHIMURIUM, Strain/Indicator: TA100, Metabolic Activation: RAT, LIVER, S-9, AROCLOR 1254, Method: STANDARD PLATE) “active; positive”.
